Usually EC50 stands for the concentration giving half of the maximal effect.

We go through 17 compounds from US8574563B2 (Bristol-Myers Squibb Company, priority 2006, dated 2013).

The experiment deals with HCV 1b-377-neo replicon cells. As to the kind of experiment: HCV replicon assay, HCV 1b-377-neo replicon cells (1b FRET). It counts as cell-based, Hepatitis C virus genotype 1b. Conditions: Hepatitis C virus, HCV 1b-377-neo replicon cells; HCV 1b genotype; read-out: EC50 range against HCV 1b (Table 2, Range). An outline of the steps:
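Compounds were tested in genotype 1b subgenomic replicon cells carrying a neomycin marker, alongside a matched replicon line with an NS5A Y2065H substitution that confers resistance to a reference NS5A inhibitor.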
In general terms: A replicon is a self-replicating genome or part of one, used to study replication in cells.

For `COC(=O)N[C@H](C(=O)N1[C@H](c2ncc(-c3ccc(-c4ccc(-c5cnc([C@@H]6C[C@@H]7C[C@@H]7N6C(=O)[C@@H](NC(=O)OC)C(C)C)[nH]5)cc4)cc3)[nH]2)C[C@@H]2C[C@@H]21)C(C)C` [Example M122, methyl ((1S)-1-(((1S,3S,5S)-3-(5-(4′-(2-((1S,3S,5S)-2-((2S)-2-((methoxycarbonyl)amino)-3-methylbutanoyl)-2-azabicyclo[3.1.0]hex-3-yl)-1H-imidazol-5-yl)-4-biphenylyl)-1H-imidazol-2-yl)-2-azabicyclo[3.1.0]hex-2-yl)carbonyl)-2-methylpropyl)carbamate], the EC50 fell in the range of 1 to 99 nM.
`COC(=O)N[C@@H](C(=O)N1[C@H](c2ncc(-c3ccc(-c4ccc(-c5cnc([C@@H]6C[C@@H]7C[C@@H]7N6C(=O)[C@H](NC(=O)OC)C(C)C)[nH]5)cc4)cc3)[nH]2)C[C@@H]2C[C@@H]21)C(C)C` [Example M123, methyl ((1R)-1-(((1S,3S,5S)-3-(5-(4′-(2-((1S,3S,5S)-2-((2R)-2-((methoxycarbonyl)amino)-3-methylbutanoyl)-2-azabicyclo[3.1.0]hex-3-yl)-1H-imidazol-5-yl)-4-biphenylyl)-1H-imidazol-2-yl)-2-azabicyclo[3.1.0]hex-2-yl)carbonyl)-2-methylpropyl)carbamate]: the EC50 lay within 1000 to 10000 nM.
Take `COC(=O)N[C@@H](C(=O)N1[C@H](c2ncc(-c3ccc(-c4ccc(-c5cnc([C@@H]6C[C@@H]7C[C@@H]7N6C(=O)[C@H](NC(=O)OC)c6ccccc6)[nH]5)cc4)cc3)[nH]2)C[C@@H]2C[C@@H]21)c1ccccc1` [Example M124, dimethyl (4,4′-biphenyldiylbis(1H-imidazole-5,2-diyl(1S,3S,5S)-2-azabicyclo[3.1.0]hexane-3,2-diyl((1R)-2-oxo-1-phenyl-2,1-ethanediyl)))biscarbamate]: the EC50 was 1 to 99 nM.
To `COC(=O)N[C@H](C(=O)N1[C@H](c2ncc(-c3ccc(-c4ccc(-c5cnc([C@@H]6C[C@@H]7C[C@@H]7N6C(=O)[C@@H](NC(=O)OC)C(C)(C)O)[nH]5)cc4)cc3)[nH]2)C[C@@H]2C[C@@H]21)C(C)(C)O` [Example M125, methyl ((1S)-2-hydroxy-1-(((1S,3S,5S)-3-(5-(4′-(2-((1S,3S,5S)-2-((2S)-3-hydroxy-2-((methoxycarbonyl)amino)-3-methylbutanoyl)-2-azabicyclo[3.1.0]hex-3-yl)-1H-imidazol-5-yl)-4-biphenylyl)-1H-imidazol-2-yl)-2-azabicyclo[3.1.0]hex-2-yl)carbonyl)-2-methylpropyl)carbamate] belongs 1 to 99 nM; to `CC[C@H](NC(=O)OC)C(=O)N1[C@H](c2ncc(-c3ccc(-c4ccc(-c5cnc([C@@H]6C[C@@H]7C[C@@H]7N6C(=O)[C@H](CC)NC(=O)OC)[nH]5)cc4)cc3)[nH]2)C[C@@H]2C[C@@H]21` [Example M126, dimethyl (4,4′-biphenyldiylbis(1H-imidazole-5,2-diyl(1S,3S,5S)-2-azabicyclo[3.1.0]hexane-3,2-diyl((2S)-1-oxo-1,2-butanediyl)))biscarbamate], 1 to 99 nM.
To `COC(=O)N[C@H](C(=O)N1[C@H](c2ncc(-c3ccc(-c4ccc(-c5cnc([C@@H]6C[C@@H]7C[C@@H]7N6C(=O)[C@@H](NC(=O)OC)C6CC6)[nH]5)cc4)cc3)[nH]2)C[C@@H]2C[C@@H]21)C1CC1` [Example M127, dimethyl (4,4′-biphenyldiylbis(1H-imidazole-5,2-diyl(1S,3S,5S)-2-azabicyclo[3.1.0]hexane-3,2-diyl((1S)-1-cyclopropyl-2-oxo-2,1-ethanediyl)))biscarbamate] belongs 1 to 99 nM; to `COC(=O)N[C@H](C(=O)N1[C@H](c2ncc(-c3ccc(-c4ccc(-c5cnc([C@@H]6C[C@@H]7C[C@@H]7N6C(=O)[C@@H](NC(=O)OC)C(C)(C)C)[nH]5)cc4)cc3)[nH]2)C[C@@H]2C[C@@H]21)C(C)(C)C` [Example M128, methyl ((1S)-1-(((1S,3S,5S)-3-(5-(4′-(2-((1S,3S,5S)-2-((2S)-2-((methoxycarbonyl)amino)-3,3-dimethylbutanoyl)-2-azabicyclo[3.1.0]hex-3-yl)-1H-imidazol-5-yl)-4-biphenylyl)-1H-imidazol-2-yl)-2-azabicyclo[3.1.0]hex-2-yl)carbonyl)-2,2-dimethylpropyl)carbamate], 1 to 99 nM.
To `COC(=O)NCC(=O)N1[C@H](c2ncc(-c3ccc(-c4ccc(-c5cnc([C@@H]6C[C@@H]7C[C@@H]7N6C(=O)CNC(=O)OC)[nH]5)cc4)cc3)[nH]2)C[C@@H]2C[C@@H]21` [Example M129, methyl (2-((1S,3S,5S)-3-(5-(4′-(2-((1S,3S,5S)-2-(((methoxycarbonyl)amino)acetyl)-2-azabicyclo[3.1.0]hex-3-yl)-1H-imidazol-5-yl)-4-biphenylyl)-1H-imidazol-2-yl)-2-azabicyclo[3.1.0]hex-2-yl)-2-oxoethyl)carbamate] belongs 1000 to 10000 nM; to `COC(=O)N[C@@H](C)C(=O)N1[C@H](c2ncc(-c3ccc(-c4ccc(-c5cnc([C@@H]6C[C@@H]7C[C@@H]7N6C(=O)[C@H](C)NC(=O)OC)[nH]5)cc4)cc3)[nH]2)C[C@@H]2C[C@@H]21` [Example M130, methyl ((1S)-2-((1S,3S,5S)-3-(5-(4′-(2-((1S,3S,5S)-2-(N-(methoxycarbonyl)-L-alanyl)-2-azabicyclo[3.1.0]hex-3-yl)-1H-imidazol-5-yl)-4-biphenylyl)-1H-imidazol-2-yl)-2-azabicyclo[3.1.0]hex-2-yl)-1-methyl-2-oxoethyl)carbamate], 1 to 99 nM; to `COC(=O)N[C@H](C(=O)N1[C@@H](c2ncc(-c3ccc(-c4ccc(-c5cnc([C@H]6C[C@H]7C[C@H]7N6C(=O)[C@@H](NC(=O)OC)C(C)C)[nH]5)cc4)cc3)[nH]2)C[C@H]2C[C@H]21)C(C)C` [Example M131, methyl ((1S)-1-(((1R,3R,5R)-3-(5-(4′-(2-((1R,3R,5R)-2-((2S)-2-((methoxycarbonyl)amino)-3-methylbutanoyl)-2-azabicyclo[3.1.0]hex-3-yl)-1H-imidazol-5-yl)-4-biphenylyl)-1H-imidazol-2-yl)-2-azabicyclo[3.1.0]hex-2-yl)carbonyl)-2-methylpropyl)carbamate], 0.001 to 0.999 nM.
In the case of `COC(=O)N[C@@H](C)C(=O)N1[C@@H]2C[C@@H]2C[C@H]1c1ncc(-c2ccc(-c3ccc(-c4cnc([C@@H]5C[C@H]6C[C@H]6N5C(=O)[C@H](C)NC(=O)OC)[nH]4)cc3)cc2)[nH]1` [Example M132, methyl ((1S)-2-((1R,3S,5R)-3-(4-(4′-(2-((1R,3S,5R)-2-(N-(methoxycarbonyl)-L-alanyl)-2-azabicyclo[3.1.0]hex-3-yl)-1H-imidazol-4-yl)-4-biphenylyl)-1H-imidazol-2-yl)-2-azabicyclo[3.1.0]hex-2-yl)-1-methyl-2-oxoethyl)carbamate], the EC50 was 0.001 to 0.999 nM.
For `CC[C@H](NC(=O)OC)C(=O)N1[C@@H]2C[C@@H]2C[C@H]1c1nc(-c2ccc(-c3ccc(-c4c[nH]c([C@@H]5C[C@H]6C[C@H]6N5C(=O)[C@H](CC)NC(=O)OC)n4)cc3)cc2)c[nH]1` [Example M133, dimethyl (4,4′-biphenyl-diylbis(1H-imidazole-4,2-diyl(1R,3S,5R)-2-azabicyclo[3.1.0]hexane-3,2-diyl((2S)-1-oxo-1,2-butanediyl)))biscarbamate], the EC50 was in the range of 0.001 to 0.999 nM.
Next, `COC(=O)NCC(=O)N1[C@@H]2C[C@@H]2C[C@H]1c1nc(-c2ccc(-c3ccc(-c4c[nH]c([C@@H]5C[C@H]6C[C@H]6N5C(=O)CNC(=O)OC)n4)cc3)cc2)c[nH]1` [Example M134, methyl (2-((1R,3S,5R)-3-(4-(4′-(2-((1R,3S,5R)-2-(((methoxy-carbonyl)amino)acetyl)-2-azabicyclo[3.1.0]hex-3-yl)-1H-imidazol-4-yl)-4-biphenylyl)-1H-imidazol-2-yl)-2-azabicyclo[3.1.0]hex-2-yl)-2-oxoethyl)carbamate]: 1 to 99 nM; `COC(=O)N[C@H](C(=O)N1[C@@H]2C[C@@H]2C[C@H]1c1nc(-c2ccc(-c3ccc(-c4c[nH]c([C@@H]5C[C@H]6C[C@H]6N5C(=O)[C@@H](NC(=O)OC)C5CC5)n4)cc3)cc2)c[nH]1)C1CC1` [Example M135, dimethyl (4,4′-biphenyl-diylbis(1H-imidazole-4,2-diyl(1R,3S,5R)-2-azabicyclo[3.1.0]hexane-3,2-diyl((1S)-1-cyclopropyl-2-oxo-2,1-ethanediyl)))biscarbamate]: 0.001 to 0.999 nM; `COC(=O)N[C@@H](C(=O)N1[C@@H]2C[C@@H]2C[C@H]1c1nc(-c2ccc(-c3ccc(-c4c[nH]c([C@@H]5C[C@H]6C[C@H]6N5C(=O)[C@H](NC(=O)OC)C(C)C)n4)cc3)cc2)c[nH]1)C(C)C` [Example M136, methyl ((1R)-1-(((1R,3S,5R)-3-(4-(4′-(2-((1R,3S,5R)-2-((2R)-2-((methoxycarbonyl)amino)-3-methylbutanoyl)-2-azabicyclo[3.1.0]hex-3-yl)-1H-imidazol-4-yl)-4-biphenylyl)-1H-imidazol-2-yl)-2-azabicyclo[3.1.0]hex-2-yl)carbonyl)-2-methylpropyl)carbamate]: 1 to 99 nM.
For `COC(=O)N[C@@H](C(=O)N1[C@@H]2C[C@@H]2C[C@H]1c1nc(-c2ccc(-c3ccc(-c4c[nH]c([C@@H]5C[C@H]6C[C@H]6N5C(=O)[C@H](NC(=O)OC)c5ccccc5)n4)cc3)cc2)c[nH]1)c1ccccc1` [Example M137, dimethyl (4,4′-biphenyl-diylbis(1H-imidazole-4,2-diyl(1R,3S,5R)-2-azabicyclo[3.1.0]hexane-3,2-diyl((1R)-2-oxo-1-phenyl-2,1-ethanediyl)))biscarbamate], the EC50 was in the range of 0.001 to 0.999 nM.
Take `COC(=O)N[C@H](C(=O)N1[C@@H]2C[C@@H]2C[C@H]1c1ncc(-c2ccc(-c3ccc(-c4cnc([C@@H]5C[C@H]6C[C@H]6N5C(C)=O)[nH]4)cc3)cc2)[nH]1)C(C)C` [Example M138, methyl ((1S)-1-(((1R,3S,5R)-3-(4-(4′-(2-((1R,3S,5R)-2-acetyl-2-azabicyclo[3.1.0]hex-3-yl)-1H-imidazol-4-yl)-4-biphenylyl)-1H-imidazol-2-yl)-2-azabicyclo[3.1.0]hex-2-yl)carbonyl)-2-methylpropyl)carbamate]: the EC50 lay in the range of 0.001 to 0.999 nM.
